Peptide text beside a SMILES is read from it.
Columns and labels:
CRF2R = biological target: T1, CRF2R (Homo sapiens, UniProt Q13324); assay: CRF2R agonist activation (EC50 / Emax), called comparative CRF binding; type: cell-based; settings: for Emax: read-out: CRF2R Emax
T1 sequence (Q13324 1-411): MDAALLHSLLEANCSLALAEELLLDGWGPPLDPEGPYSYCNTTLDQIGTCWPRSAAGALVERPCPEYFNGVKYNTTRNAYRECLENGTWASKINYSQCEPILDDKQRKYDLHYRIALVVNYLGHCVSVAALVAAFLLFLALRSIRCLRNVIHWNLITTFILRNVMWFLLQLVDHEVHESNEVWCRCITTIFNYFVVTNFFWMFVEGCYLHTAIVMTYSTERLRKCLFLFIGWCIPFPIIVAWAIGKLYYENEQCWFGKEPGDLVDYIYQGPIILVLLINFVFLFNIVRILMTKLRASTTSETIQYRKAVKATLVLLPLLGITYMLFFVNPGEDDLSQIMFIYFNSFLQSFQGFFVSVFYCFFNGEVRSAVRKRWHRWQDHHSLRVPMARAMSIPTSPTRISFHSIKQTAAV
Procedure, shortened: (§1)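 CRFR-expressing cells + peptide vs vehicle; read-out cAMP (lysate assay) or CRE-linked reporter expression (luciferase, CAT, fluorescent protein, alkaline phosphatase, etc.). Signal compared against vehicle-treated cells.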

CRF1R = biological target: T2, CRF1R (Homo sapiens, UniProt P34998); assay: CRF1R agonist activation (EC50 / Emax), called comparative CRF binding; type: cell-based; settings: for Emax: read-out: CRF1R Emax
T2 sequence (P34998 24-415): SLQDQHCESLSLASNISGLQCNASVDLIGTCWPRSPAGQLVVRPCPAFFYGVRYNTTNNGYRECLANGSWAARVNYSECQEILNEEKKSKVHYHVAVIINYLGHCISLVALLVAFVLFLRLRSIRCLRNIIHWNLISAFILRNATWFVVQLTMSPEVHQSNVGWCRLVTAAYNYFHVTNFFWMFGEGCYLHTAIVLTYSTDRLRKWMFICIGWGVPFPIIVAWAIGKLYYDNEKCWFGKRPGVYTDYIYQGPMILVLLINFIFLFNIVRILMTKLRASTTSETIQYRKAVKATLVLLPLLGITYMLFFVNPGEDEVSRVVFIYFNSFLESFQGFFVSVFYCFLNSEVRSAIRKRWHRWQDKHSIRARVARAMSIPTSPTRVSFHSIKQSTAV
Procedure, shortened: as §1

CC[C@H](C)[C@H](N)C(=O)N[C@H](C(=O)N[C@@H](CC(C)C)C(=O)N[C@@H](CO)C(=O)N[C@@H](CC(C)C)C(=O)N[C@@H](CC(=O)O)C(=O)N[C@H](C(=O)N1CCC[C@H]1C(=O)N[C@H](C(=O)NCC(=O)N[C@@H](CC(C)C)C(=O)N[C@@H](CC(C)C)C(=O)N[C@@H](CCC(N)=O)C(=O)N[C@H](C(=O)N[C@@H](CC(C)C)C(=O)N[C@@H](CC(C)C)C(=O)N[C@@H](CCC(=O)O)C(=O)N[C@@H](CCC(N)=O)C(=O)N[C@@H](CCC(=O)O)C(=O)N[C@@H](CCCCN)C(=O)N[C@@H](CCC(N)=O)C(=O)N[C@@H](CCCNC(=N)N)C(=O)N[C@@H](C)C(=O)N[C@@H](C)C(=O)N[C@@H](CCCNC(=N)N)C(=O)N[C@@H](CCC(=O)O)C(=O)N[C@@H](CCC(N)=O)C(=O)N[C@@H](C)C(=O)N[C@H](C(=O)N[C@H](C(=O)N[C@@H](CC(N)=O)C(=O)N[C@@H](C)C(=O)N[C@@H](CCCNC(=N)N)C(=O)N[C@H](C(=O)N[C@@H](CC(C)C)C(=O)N[C@@H](C)C(=O)N[C@@H](CCCNC(=N)N)C(=O)N[C@H](C(N)=O)C(C)C)[C@@H](C)CC)[C@@H](C)O)[C@@H](C)O)[C@@H](C)CC)[C@@H](C)CC)C(C)C)C(C)C [compound 115] (H-IVLSLDVPIGLLQILLEQEKQRAAREQATTNARILARV-NH2; N-terminus assumed)
Emax (CRF2R): 98%
Emax (CRF1R): 7%

CC[C@H](C)[C@H](N)C(=O)N[C@H](C(=O)N[C@@H](CC(C)C)C(=O)N[C@@H](CO)C(=O)N[C@@H](CC(C)C)C(=O)N[C@@H](CC(=O)O)C(=O)N[C@H](C(=O)N1CCC[C@H]1C(=O)N[C@H](C(=O)NCC(=O)N[C@@H](CC(C)C)C(=O)N[C@@H](CC(C)C)C(=O)N[C@@H](CCC(N)=O)C(=O)N[C@H](C(=O)N[C@@H](CC(C)C)C(=O)N[C@@H](CC(C)C)C(=O)N[C@@H](CCC(=O)O)C(=O)N[C@@H](CCC(N)=O)C(=O)N[C@H](C(=O)N[C@@H](CCCCN)C(=O)N[C@@H](C)C(=O)N[C@@H](CC(N)=O)C(=O)N[C@@H](C)C(=O)N[C@@H](C)C(=O)N[C@@H](CCCNC(=N)N)C(=O)N[C@@H](CCC(=O)O)C(=O)N[C@@H](CCC(N)=O)C(=O)N[C@@H](C)C(=O)N[C@H](C(=O)N[C@H](C(=O)N[C@H](C(=O)N[C@@H](C)C(=O)N[C@@H](CCCNC(=N)N)C(=O)N[C@H](C(=O)N[C@@H](CC(C)C)C(=O)N[C@@H](C)C(=O)N[C@@H](CCCNC(=N)N)C(=O)N[C@H](C(N)=O)C(C)C)[C@@H](C)CC)C(C)C)[C@@H](C)O)[C@@H](C)O)[C@@H](C)O)[C@@H](C)CC)[C@@H](C)CC)C(C)C)C(C)C [compound 116] (H-IVLSLDVPIGLLQILLEQTKANAAREQATTVARILARV-NH2)
Emax (CRF2R): 26.4%
Emax (CRF1R): 4.8%

CC[C@H](C)[C@H](N)C(=O)N[C@H](C(=O)N[C@@H](CC(C)C)C(=O)N[C@@H](CO)C(=O)N[C@@H](CC(C)C)C(=O)N[C@@H](CC(=O)O)C(=O)N[C@H](C(=O)N1CCC[C@H]1C(=O)N[C@H](C(=O)NCC(=O)N[C@@H](CC(C)C)C(=O)N[C@@H](CC(C)C)C(=O)N[C@@H](CCC(N)=O)C(=O)N[C@H](C(=O)N[C@@H](CC(C)C)C(=O)N[C@@H](CC(C)C)C(=O)N[C@@H](CCC(=O)O)C(=O)N[C@@H](CCC(N)=O)C(=O)N[C@H](C(=O)N[C@@H](CCCCN)C(=O)N[C@@H](C)C(=O)N[C@@H](CCCNC(=N)N)C(=O)N[C@@H](C)C(=O)N[C@@H](C)C(=O)N[C@@H](CCCNC(=N)N)C(=O)N[C@@H](CCC(=O)O)C(=O)N[C@@H](CCC(N)=O)C(=O)N[C@@H](C)C(=O)N[C@H](C(=O)N[C@H](C(=O)N[C@@H](CC(N)=O)C(=O)N[C@@H](C)C(=O)N[C@@H](CCCNC(=N)N)C(=O)N[C@H](C(=O)N[C@@H](CC(C)C)C(=O)N[C@@H](C)C(=O)N[C@@H](CCCNC(=N)N)C(=O)N[C@H](C(N)=O)C(C)C)[C@@H](C)CC)[C@@H](C)O)[C@@H](C)O)[C@@H](C)O)[C@@H](C)CC)[C@@H](C)CC)C(C)C)C(C)C [compound 117] (H-IVLSLDVPIGLLQILLEQTKARAAREQATTNARILARV-NH2)
Emax (CRF2R): 98.8%
Emax (CRF1R): 7.8%

CC[C@H](C)[C@H](N)C(=O)N[C@H](C(=O)N[C@@H](CC(C)C)C(=O)N[C@@H](CO)C(=O)N[C@@H](CC(C)C)C(=O)N[C@@H](CC(=O)O)C(=O)N[C@H](C(=O)N1CCC[C@H]1C(=O)N[C@H](C(=O)NCC(=O)N[C@@H](CC(C)C)C(=O)N[C@@H](CC(C)C)C(=O)N[C@@H](CCC(N)=O)C(=O)N[C@H](C(=O)N[C@@H](CC(C)C)C(=O)N[C@@H](CC(C)C)C(=O)N[C@@H](CCC(=O)O)C(=O)N[C@@H](CCC(N)=O)C(=O)N[C@@H](CCC(=O)O)C(=O)N[C@@H](CCCNC(=N)N)C(=O)N[C@@H](CCC(N)=O)C(=O)N[C@@H](CCC(=O)O)C(=O)N[C@@H](C)C(=O)N[C@@H](C)C(=O)N[C@@H](CCCNC(=N)N)C(=O)N[C@@H](CCC(=O)O)C(=O)N[C@@H](CCC(N)=O)C(=O)N[C@@H](C)C(=O)N[C@H](C(=O)N[C@H](C(=O)N[C@@H](CC(N)=O)C(=O)N[C@@H](C)C(=O)N[C@@H](CCCNC(=N)N)C(=O)N[C@H](C(=O)N[C@@H](CC(C)C)C(=O)N[C@@H](C)C(=O)N[C@@H](CCCNC(=N)N)C(=O)N[C@H](C(N)=O)C(C)C)[C@@H](C)CC)[C@@H](C)O)[C@@H](C)O)[C@@H](C)CC)[C@@H](C)CC)C(C)C)C(C)C [compound 118] (H-IVLSLDVPIGLLQILLEQERQEAAREQATTNARILARV-NH2; N-terminus assumed)
Emax (CRF2R): 100%
Emax (CRF1R): 5%

CC[C@H](C)[C@H](N)C(=O)N[C@H](C(=O)N[C@@H](CC(C)C)C(=O)N[C@@H](CO)C(=O)N[C@@H](CC(C)C)C(=O)N[C@@H](CC(=O)O)C(=O)N[C@H](C(=O)N1CCC[C@H]1C(=O)N[C@H](C(=O)NCC(=O)N[C@@H](CC(C)C)C(=O)N[C@@H](CC(C)C)C(=O)N[C@@H](CCC(N)=O)C(=O)N[C@H](C(=O)N[C@@H](CC(C)C)C(=O)N[C@@H](CC(C)C)C(=O)N[C@@H](CCC(=O)O)C(=O)N[C@@H](CCC(N)=O)C(=O)N[C@@H](CCC(=O)O)C(=O)N[C@@H](CCCNC(=N)N)C(=O)N[C@@H](C)C(=O)N[C@@H](CCCNC(=N)N)C(=O)N[C@@H](C)C(=O)N[C@@H](C)C(=O)N[C@@H](CCCNC(=N)N)C(=O)N[C@@H](CCC(=O)O)C(=O)N[C@@H](CCC(N)=O)C(=O)N[C@@H](C)C(=O)N[C@H](C(=O)N[C@H](C(=O)N[C@@H](CC(N)=O)C(=O)N[C@@H](C)C(=O)N[C@@H](CCCNC(=N)N)C(=O)N[C@H](C(=O)N[C@@H](CC(C)C)C(=O)N[C@@H](C)C(=O)N[C@@H](CCCNC(=N)N)C(=O)N[C@H](C(N)=O)C(C)C)[C@@H](C)CC)[C@@H](C)O)[C@@H](C)O)[C@@H](C)CC)[C@@H](C)CC)C(C)C)C(C)C [compound 119] (H-IVLSLDVPIGLLQILLEQERARAAREQATTNARILARV-NH2; N-terminus assumed)
EC50 (CRF2R; read-out: CRF2R EC50): 3.57 nM
Emax (CRF2R): 95%
EC50 (CRF1R; read-out: CRF1R EC50): > 100 nM
Emax (CRF1R): 3%

Source: US6936585B2, “Corticotropin releasing factor 2 receptor agonists” (priority 2002, dated 2005)
